Data set [1] deals with Lolium rigidum. Kind of data set: Post-emergence herbicidal activity against Lolium rigidum at 30 g a.i./ha measured after 20 days in presence of cloquintocet-mexyl. In kind it is functional.
Data set [2] has as its system Avena fatua. The data set is described as follows: Post-emergence herbicidal activity against Avena fatua at 30 g a.i./ha measured after 21 days in presence of 1% Merge adjuvant. In kind it is functional.
Data set [3] relates to Setaria faberi. The data set is described as follows: Post-emergence herbicidal activity against Setaria faberi (Giant Foxtail) at 30 g a.i./ha measured after 21 days in presence of 1% Merge adjuvant. Format: functional.
In data set [4] the test system is Triticum aestivum. The data set is described as follows: Phytotoxicity against Triticum aestivum cv. Remia (wheat) at 60 g a.i./ha applied post-emergence measured after 12 days in presence of cloquintocet-mexyl. Format: functional.
Data set [5] has as its system Triticum aestivum. Kind of data set: Phytotoxicity against Triticum aestivum cv. Remia (wheat) at 60 g a.i./ha applied post-emergence measured after 12 days. In kind it is functional.
For data set [6], the system named is Triticum aestivum. The data set is described as follows: Phytotoxicity against Triticum aestivum cv. Arina (wheat) at 60 g a.i./ha applied post-emergence measured after 12 days in presence of cloquintocet-mexyl. In kind it is functional.
The test system of data set [7] is Lolium rigidum. The data set is described as follows: Post-emergence herbicidal activity against Lolium rigidum at 30 g a.i./ha measured after 20 days. In kind it is functional.
A short description of data set [8]: Half life of hydrolysis at pH 7 at 50 degC. Format: ADME. The following applies: buffer.
Data set [9] relates to Avena fatua. The data set is described as follows: Post-emergence herbicidal activity against Avena fatua at 30 g a.i./ha measured after 20 days in presence of cloquintocet-mexyl. In kind it is functional.
The test system of data set [10] is Triticum aestivum. The data set is described as follows: Phytotoxicity against Triticum aestivum cv. Arina (wheat) at 60 g a.i./ha applied post-emergence measured after 12 days. Format: functional.
The test system of data set [11] is Hordeum vulgare. Kind of data set: Phytotoxicity against Hordeum vulgare cv. Fanfare (barley) at 60 g a.i./ha applied post-emergence measured after 12 days. In kind it is functional.
The subject of data set [12] is Avena fatua. The data set is described as follows: Post-emergence herbicidal activity against Avena fatua at 30 g a.i./ha measured after 20 days. In kind it is functional.
The test system of data set [13] is Lolium perenne. Kind of data set: Post-emergence herbicidal activity against Lolium perenne (perennial ryegrass) at 30 g a.i./ha measured after 21 days in presence of 1% Merge adjuvant. Format: functional.
Data set [14] concerns Alopecurus myosuroides. The data set is described as follows: Post-emergence herbicidal activity against Alopecurus myosuroides at 30 g a.i./ha measured after 21 days in presence of 1% Merge adjuvant. Format: functional.
The subject of data set [15] is Triticum aestivum. The data set is described as follows: Phytotoxicity against Triticum aestivum (wheat) at 30 g a.i./ha applied post-emergence measured after 21 days in presence of 1% Merge adjuvant. Format: organism-based. The note with it: in vivo, other, 504 h.
The subject of data set [16] is Hordeum vulgare. The data set is described as follows: Phytotoxicity against Hordeum vulgare cv. Fanfare (barley) at 60 g a.i./ha applied post-emergence measured after 12 days in presence of cloquintocet-mexyl. In kind it is functional.
Data set [17] has as its system Hordeum vulgare. The data set is described as follows: Phytotoxicity against Hordeum vulgare (barley) at 30 g a.i./ha applied post-emergence measured after 21 days in presence of 1% Merge adjuvant. Format: organism-based. The following applies: in vivo, other, 504 h.
Data set [18] relates to Alopecurus myosuroides. The data set is described as follows: Post-emergence herbicidal activity against Alopecurus myosuroides at 125 g a.i./ha measured after 21 days in presence of 0.2% X-77 adjuvant. In kind it is functional.
Data set [19] has as its system Triticum aestivum. The data set is described as follows: Phytotoxicity against Triticum aestivum (wheat) at 125 g a.i./ha applied post-emergence measured after 21 days in presence of 0.2% X-77 adjuvant. In kind it is organism-based. The note with it: in vivo, other, 504 h.
In data set [20] the test system is Setaria faberi. The data set is described as follows: Post-emergence herbicidal activity against Setaria faberi (Giant Foxtail) at 125 g a.i./ha measured after 21 days in presence of 0.2% X-77 adjuvant. Format: functional.
The test system of data set [21] is Hordeum vulgare. Kind of data set: Phytotoxicity against Hordeum vulgare (barley) at 125 g a.i./ha applied post-emergence measured after 21 days in presence of 0.2% X-77 adjuvant. The note with it: in vivo, other, 504 h. Format: organism-based.
The test system of data set [22] is Lolium perenne. Kind of data set: Post-emergence herbicidal activity against Lolium perenne (perennial ryegrass) at 125 g a.i./ha measured after 21 days in presence of 0.2% X-77 adjuvant. In kind it is functional.
Data set [23] concerns Avena fatua. Kind of data set: Post-emergence herbicidal activity against Avena fatua at 125 g a.i./ha measured after 21 days in presence of 0.2% X-77 adjuvant. In kind it is functional.
Data set [24] concerns Setaria faberi. Kind of data set: Post-emergence herbicidal activity against Setaria faberi (Giant Foxtail) at 250 g a.i./ha measured after 21 days in presence of 1% Merge adjuvant. In kind it is functional.
The test system of data set [25] is Hordeum vulgare. Kind of data set: Phytotoxicity against Hordeum vulgare (barley) at 250 g a.i./ha applied post-emergence measured after 21 days in presence of 1% Merge adjuvant. Format: organism-based. The note with it: in vivo, other, 504 h.
For data set [26], the system named is Lolium perenne. Kind of data set: Post-emergence herbicidal activity against Lolium perenne (perennial ryegrass) at 250 g a.i./ha measured after 21 days in presence of 1% Merge adjuvant. Format: functional.
Data set [27] has as its system Triticum aestivum. The data set is described as follows: Phytotoxicity against Triticum aestivum (wheat) at 250 g a.i./ha applied post-emergence measured after 21 days in presence of 1% Merge adjuvant. Format: organism-based. The note with it: in vivo, other, 504 h.
Data set [28] has as its system Alopecurus myosuroides. Kind of data set: Post-emergence herbicidal activity against Alopecurus myosuroides at 250 g a.i./ha measured after 21 days in presence of 1% Merge adjuvant. In kind it is functional.
For data set [29], the system named is Avena fatua. The data set is described as follows: Post-emergence herbicidal activity against Avena fatua at 250 g a.i./ha measured after 21 days in presence of 1% Merge adjuvant. Format: functional.
Data set [30] deals with Setaria faberi. The data set is described as follows: Post-emergence herbicidal activity against Setaria faberi (Giant Foxtail) at 500 g a.i./ha after 21 days. Format: functional.
In data set [31] the test system is Avena fatua. Kind of data set: Post-emergence herbicidal activity against Avena fatua at 500 g a.i./ha after 21 days. In kind it is functional.
Data set [32] concerns Setaria faberi. Kind of data set: Post-emergence herbicidal activity against Setaria faberi (Giant Foxtail) at 2000 g a.i./ha after 21 days. In kind it is functional.
For data set [33], the system named is Avena fatua. Kind of data set: Post-emergence herbicidal activity against Avena fatua at 2000 g a.i./ha after 21 days. In kind it is functional.
The subject of data set [34] is Lolium perenne. The data set is described as follows: Post-emergence herbicidal activity against Lolium perenne (perennial ryegrass) at 2000 g a.i./ha after 21 days. In kind it is functional.
In data set [35] the test system is Lolium perenne. Kind of data set: Post-emergence herbicidal activity against Lolium perenne (perennial ryegrass) at 500 g a.i./ha after 21 days. Format: functional.
The subject of data set [36] is Hordeum vulgare. The data set is described as follows: Phytotoxicity against Hordeum vulgare (barley) at 30 g a.i./ha applied post-emergence measured after 21 days in presence of 0.2% X-77 adjuvant. In kind it is organism-based. The following applies: in vivo, other, 504 h.
Data set [37] deals with Triticum aestivum. Kind of data set: Phytotoxicity against Triticum aestivum (wheat) at 30 g a.i./ha applied post-emergence measured after 21 days in presence of 0.2% X-77 adjuvant. In kind it is organism-based. The following applies: in vivo, other, 504 h.
For data set [38], the system named is Alopecurus myosuroides. Kind of data set: Post-emergence herbicidal activity against Alopecurus myosuroides at 30 g a.i./ha measured after 21 days in presence of 0.2% X-77 adjuvant. Format: functional.
Data set [39] concerns Lolium perenne. The data set is described as follows: Post-emergence herbicidal activity against Lolium perenne (perennial ryegrass) at 30 g a.i./ha measured after 21 days in presence of 0.2% X-77 adjuvant. In kind it is functional.
Data set [40] has as its system Avena fatua. The data set is described as follows: Post-emergence herbicidal activity against Avena fatua at 30 g a.i./ha measured after 21 days in presence of 0.2% X-77 adjuvant. In kind it is functional.
Data set [41] has as its system Setaria faberi. The data set is described as follows: Post-emergence herbicidal activity against Setaria faberi (Giant Foxtail) at 30 g a.i./ha measured after 21 days in presence of 0.2% X-77 adjuvant. Format: functional.

Data on six molecules can be found in ChEMBL document CHEMBL3045393, “Aryldiones incorporating a [1,4,5]oxadiazepane ring. Part I: Discovery of the novel cereal herbicide pinoxaden” (Bioorg Med Chem, 2009).

In general, half-life refers to the time in which the quantity being followed falls by half. A higher half-life goes with slow decline.

SMILES strings stand for the structures.

With `CCc1cc(C)cc(CC)c1-c1c(OC(=O)C(C)(C)C)n2n(c1=O)CCOCC2` [PINOXADEN], the Activity in the data set on Lolium rigidum [1] came out at 95%; in the data set with Avena fatua [2] it was 100%; in the data set with Setaria faberi [3], 90%; with Triticum aestivum [4], 0%; in the data set with Triticum aestivum [5], 30%; with Triticum aestivum [6], 0%. Moreover, the Activity in the data set on Lolium rigidum [7] is recorded as 90%; in the data set on Avena fatua [9], 90%; in the data set with Triticum aestivum [10], 30%; in the data set on Hordeum vulgare [11], 20%; in the data set with Avena fatua [12] it was 90%; in the data set with Lolium perenne [13], 100%. Further, the Activity in the data set with Alopecurus myosuroides [14] amounted to 100%; in the data set on Triticum aestivum [15], 10%; in the data set with Hordeum vulgare [16], 0%; with Hordeum vulgare [17] it was 0%. For the same molecule, in data set [8], the half-life is 20.6 h.
Regarding `CCc1cc(C)cc(CC)c1C1C(=O)N2CCCCN2C1=O`, the Activity with Alopecurus myosuroides [18] is reported as 90%; in the data set on Triticum aestivum [19], 80%; in the data set on Setaria faberi [20], 80%; with Hordeum vulgare [21] it was 90%; in the data set with Lolium perenne [22], 90%; in the data set with Avena fatua [23] it was 100%.
In the case of `Cc1cc(C)c(C2C(=O)N3CCCOCN3C2=O)c(C)c1` (stereo unspecified), the Activity in the data set on Setaria faberi [24] amounted to 50%; in the data set on Hordeum vulgare [25], 10%; in the data set with Lolium perenne [26], 20%; in the data set on Triticum aestivum [27], 10%; with Alopecurus myosuroides [28] it was 0%; in the data set on Avena fatua [29], 0%.
In the case of `Cc1cc(C)c(C2C(=O)N3CCOCCN3C2=O)c(C)c1`, the Activity in the data set on Setaria faberi [24] was found to be 90%; in the data set with Hordeum vulgare [25], 20%; in the data set with Setaria faberi [30] it was 80%; in the data set on Lolium perenne [26], 90%; in the data set with Avena fatua [2], 60%; in the data set on Avena fatua [31], 80%. In addition, the Activity in the data set with Triticum aestivum [27] came out at 50%; with Setaria faberi [3], 50%; with Alopecurus myosuroides [28], 80%; in the data set on Setaria faberi [32] it was 100%; with Avena fatua [29], 90%; with Avena fatua [33], 100%. Further, the Activity in the data set with Lolium perenne [34] is 100%; in the data set on Lolium perenne [35], 90%; in the data set on Lolium perenne [13], 80%; with Alopecurus myosuroides [14], 10%; with Triticum aestivum [15] it was 0%; in the data set on Hordeum vulgare [17], 0%.
Regarding `CCc1cc(CC)c(C2C(=O)N3CCCCN3C2=O)c(CC)c1`, the Activity was found to be 90% in the data set on Alopecurus myosuroides [18]; 40% in the data set on Triticum aestivum [19]; 50% in the data set on Setaria faberi [20]; 40% in the data set on Hordeum vulgare [21]; 60% in the data set with Lolium perenne [22]; 100% in the data set with Avena fatua [23].
As to `CCc1cccc(CC)c1C1C(=O)N2CCCCN2C1=O`, the Activity came to 10% in the data set on Hordeum vulgare [36]; 40% in the data set on Triticum aestivum [37]; 60% in the data set with Alopecurus myosuroides [18]; 0% in the data set with Triticum aestivum [19]; 100% in the data set on Avena fatua [2]; 40% in the data set with Setaria faberi [20]. The Activity with Setaria faberi [3] was 90%; in the data set on Alopecurus myosuroides [38], 80%; with Lolium perenne [39], 50%; in the data set on Hordeum vulgare [21], 0%; with Avena fatua [40] it was 90%; with Lolium perenne [22], 40%. In addition, the Activity with Setaria faberi [41] was determined as 40%; in the data set on Lolium perenne [13], 80%; with Alopecurus myosuroides [14], 100%; in the data set on Triticum aestivum [15], 80%; in the data set with Avena fatua [23], 80%; in the data set on Hordeum vulgare [17] it was 80%.
